Earlier results in US20130195797A1, “HIGH POTENCY FORMULATIONS OF VX-950” (VERTEX PHARMACEUTICALS INCORPORATED, priority 2012, published 2013).

Test system: HCV
Conditions: clinical trials

For CCC[C@H](NC(=O)[C@@H]1[C@H]2CCC[C@H]2CN1C(=O)[C@@H](NC(=O)[C@@H](NC(=O)c1cnccn1)C1CCCCC1)C(C)(C)C)C(=O)C(=O)NC1CC1 [VX-950], the “antiviral activity / effective therapy against HCV” value is given as “has shown antiviral activity”.
